Measurements: patent US12708630B2, “Combined therapy of 4′-thio-5-aza-2′-deoxycytidine and Venetoclax” (PINOTBIO, INC., priority 2021, dated 2026)
Entries after “also recorded” stand apart in the source; their conditions may differ. Read-outs that look alike come from different tables or passages of the source.

Assays:
[1] = test system: CEBP/epsilon, CDKN1B; assay: CEBP/epsilon and CDKN1B expression in AML cell lines; type: cell-based
Source text: CEBP/epsilon and CDKNIB expression was identified and comparatively analyzed in various AML cell lines to determine the mode of target engagement induced by DNMT1 inhibition upon treatment with Aza-T-dCyd (NTX-301) (FIG. 16).

[2] = test system: RRM1 protein, dCTP and dTTP; assay: RRM1 expression and pyrimidine level in cells; type: cell-based
Source text: The reduction of dCTP and dTTP, which act as important precursors for cancer cells to replicate DNA, can cause replication stress and generate a strong DNA damage response.

[3] = Pharmacokinetic evaluation in Mice (Table 4); details: mouse, in vivo; for half-life: read-out: T½ (converted)
Description: Aza-T-dCyd was administered orally and intravenously at various concentrations to Mice, Rats and Dogs to determine the PK profile.

[4] = test system: systemic MV4-11 engraftment model; details: for survival: oral
Description: After establishing a systemic MV4-11 engraftment model that more accurately depicts the disease in humans, Aza-T-dCyd was administered orally at doses ranging from 0.4 to 1.5 mg/kg.
After establishment of the systemic MV4-11 engraftment model, Aza-T-dCyd was administered orally at doses of 1.5, 2.0, and 2.5 mg/kg (using the standard dose/dosing schedule used in preclinical trials for decitabine/azacytidine).
After establishing a systemic MV4-11 engraftment model, blood was collected at pre-treatment (Day 21) and mid-treatment (Day 36, 56, 77) in the Aza-T-dCyd and Decitabine/Azacytidine groups and analyzed for complete blood count (CBC) values.
To determine whether the anti-cancer efficacy in the systemic MV4-11 engraftment model was directly related to the ability to suppress the number of cancer cells, we performed experiments to measure body luminescence after systemic engraftment using the luciferase-transfected Mv4-11 cell line.

[5] = test system: DNMT3A; assay: DNMT3A expression in HL-60 xenograft tumor samples; type: in vivo, mice; details: 2 mg/kg NTX-301 intraperitoneally, day 11
Description: (§1) As the efficacy of DNMT1 inhibitors correlates with their selective profile for targeting DNMT1 and the de novo methyltransferases DNMT3A and DNMT3B, we confirmed the expression of DNMT1, DNMT3A, and DNMT3B in the Aza-T-dCyd and Decitabine treated groups in this xenograft model (FIG. 27).
(§2) In the HL-60 xenograft mice model, 2 mg/kg of NTX-301 (Aza-T-dCyd) or 0.75 mg/kg of Decitabine were administered intraperitoneally, and then tumor samples were collected on day 11 to determine the expression of DNMT1, DNMT3A, and DNMT3B. […] On the other hand, the expression levels of DNMT3A and DNMT3B were different in the Aza-T-dCyd and Decitabine treatment groups.

[6] = test system: HCT-116 (colorectal); assay: HCT-116 (colorectal) xenograft model; type: in vivo, Mouse; details: nude mouse, 1 mg/kg, (4) cycles
Description: (§3) The efficacy of Aza-T-dCyd was confirmed by tumor growth curves after administration of Aza-T-dCyd in various solid cancer xenograft models. Aza-T-dCyd at a dose of 1~2 mg/kg was administered repeatedly for 2~6 cycles in QD×5, showing excellent anti-cancer effects (evidenced by test/control (T/C) value≤40%).

[7] = test system: NCI-H522 (NSCLC); assay: NCI-H522 (NSCLC) xenograft model; type: in vivo; details: nude mouse, 2 mg/kg, (6) cycles
Description: as §3

[8] = test system: OVCAR-3 (ovarian); assay: OVCAR-3 (ovarian) xenograft model; type: in vivo; details: NSG mouse, (4) cycles
Source text: The efficacy of Aza-T-dCyd was confirmed by tumor growth curves after administration of Aza-T-dCyd in various solid cancer xenograft models. […]

[9] = test system: MV4-11 AML cells; assay: MV4-11 AML xenograft implanted subcutaneously, combination with venetoclax; type: in vivo, mice; parameters: anti-cancer effect (tumor volume): dose or concentration left out as unconfirmed
Description: After establishing a xenograft systemic AML model in which MV4-11 AML cells were implanted subcutaneously in mice, Aza-T-dCyd alone at 2.0 mpk for 1 cycle (5 days on, 2 days off, 5 days on, 9 days off) was administered (PO) or Aza-T-dCyd 0.5, 1.0 or 2.0 mpk plus venetoclax 50 mpk or 100 mpk administered orally (PO) for 1 cycle (venetoclax on for 5 days, off for 2 days, repeated for 3 weeks). Anti-cancer efficacy was determined in disease models in which azacitidine 5.0 mpk was administered intraperitoneally (IP) alone or in combination with optimal dose of azacitidine (2.5 mpk) and venetoclax 50 mpk or 100 mpk as a control.

[10] = target: DNMT3B (Homo sapiens, UniProt Q9UBC3); assay: DNMT3B expression in HL-60 xenograft tumor samples; type: in vivo, mice; parameters: tumor samples were collected on day 11 to determine the expression of DNMT1, DNMT3A, and DNMT3B; from tissue; host or cells: HL-60 xenograft tumour samples (mouse host); details: 2 mg/kg NTX-301 or 0.75 mg/kg Decitabine intraperitoneally, day 11
Description: as §1, §2

## Nc1ncn([C@H]2CC(O)[C@@H](CO)S2)c(=O)n1 (stereo partly drawn) [Aza-T-dCyd, 4′-thio-5-aza-2′-deoxycytidine]
[1]; MV4-11, HL-60 and KG-1a cells, 72 hours
  CEBP/epsilon and CDKN1B intracellular protein expression: expression of CEBP/epsilon and CDKN1B was increased
[1]; THP-1 cells, different concentrations
  CEBP/epsilon and CDKN1B expression: increased CEBP/epsilon expression and CDKN1B expression
[2]
  RRM1 protein expression: inhibited the expression of RRM1 protein
  amount of dCTP and dTTP in the cells: decreased the amount of dCTP and dTTP
[3]; Table 4, IV 1 mg/kg
  AUC(0-inf): 406 ng·h/mL
  AUC(0-t): 370 ng·h/mL
  Cmax: 527 ng/mL
  half-life: 36.7 min
[3]; Table 4, PO 0.5 mg/kg
  AUC(0-inf): 131 ng·h/mL
  AUC(0-t): 118 ng·h/mL
  Cmax: 211 ng/mL
  Tmax: 30 min
  half-life: 18.2 min
[3]; Table 4, PO 1 mg/kg
  AUC(0-inf): 235 ng·h/mL
  AUC(0-t): 136 ng·h/mL
  Cmax: 138 ng/mL
  Tmax: 15 min
  half-life: 103 min
[3]; Table 4, PO 3 mg/kg
  AUC(0-inf): 443 ng·h/mL
  AUC(0-t): 303 ng·h/mL
  Cmax: 256 ng/mL
  Tmax: 15 min
  half-life: 66.6 min
[3]; Table 4, PO 10 mg/kg
  AUC(0-inf): 1460 ng·h/mL
  AUC(0-t): 1340 ng·h/mL
  Cmax: 863 ng/mL
  Tmax: 20 min
  half-life: 69 min
[4]; Aza-T-dCyd oral 1.5, 2.0 and 2.5 mg/kg, decitabine/azacytidine at standard preclinical dose/schedule
  anti-AML activity and survival: very good anti-AML activity and improved survival
[4]; luciferase-transfected Mv4-11 cell line, systemic engraftment
  body luminescence: inhibited body luminescence more strongly than the actual Azacytidine treatment
[4]; mouse, in vivo
  complete blood count (WBC, RBC, Neutrophil, Platelet): no changes
[4]; highest dose (range 0.4 to 1.5 mg/kg)
  survival: more than half of the mice survived to the end of the experiment
[4]; lowest dose of 0.4 mg/kg
  survival: statistically significant survival improvement
[5]
  DNMT3A expression level in tumor samples: not affected
[6]
  Optimal T/C (%) (test/control): 21%
[7]
  Optimal T/C (%) (test/control): 31%
[8]; 0.5 mg/kg
  Optimal T/C (%) (test/control): 40%
[8]; 1 mg/kg
  Optimal T/C (%) (test/control): 4%
[9]; Aza-T-dCyd 0.5 mpk with venetoclax, FIGS. 30 and 31
  anti-cancer effect (tumor volume): complete tumor regression
[9]; Aza-T-dCyd 2.0 mpk alone, FIGS. 28 to 33
  anti-cancer efficacy of monotherapy versus Azacytidine/Venetoclax: as effective as the Azacytidine/Venetoclax group; also recorded: anti-cancer efficacy equivalent to or superior to that of Azacytidine/Venetoclax combination
[9]; administered alone (Aza-T-dCyd 2 mpk), FIGS. 30 and 31, listed as NTX-301
  anti-cancer effect (tumor volume), single agent: sufficiently working; also recorded: sufficiently anti-tumorigenic
[10]
  DNMT3B expression level in tumor samples: significantly reduced
